Measurements as given in patent US9945862B2, “Biomarkers for predicting and assessing responsiveness of thyroid and kidney cancer subjects to lenvatinib compounds” (Eisai R&D Management Co., Ltd., priority 2011, dated 2018).
“Also recorded” adds a separate entry of the source.

What was measured:
[1] = test system: differentiated thyroid cancer patients; experiment: Tumor shrinkage (percent change of sum of diameters of target lesions) in E7080-treated DTC patients; format: in vivo, human
Description: (§1) The period during which a patient takes E7080 was artificially divided into different Cycles for ease of evaluation and tracking. Patients received E7080 at a dose of 24 mg oral once daily in 28 day cycles. For analysis purposes, assessments of clinical outcomes were performed at the time of the 9 month and at 14 month minimum follow-up. For the E7080 Thyroid Cancer trial, each Cycle is 28 days (4 weeks) so Day 1-28 is cycle 1; Day 29 is Day 1 of Cycle 2; and Day 57 is Day 1 of Cycle 3. Blood samples were collected for pharmacokinetic (PK) analysis on Cycle 1 Days 1 and 8, Cycle 2 Day 1, and Cycle 3 Day 1. A total of 9 samples per patient were collected as follows: Cycle 1 Day 1: immediately prior to the dose of E7080, and at 0.5 and 2 hours following the first dose of E7080 (post-dose); Cycle 1 Day 8: immediately prior to the dose of E7080; Cycle 2 Day 1: immediately prior to the dose of E7080, 0.5 and 2 hours post-dose; Cycle 3 Day 1: immediately prior to the dose of E7080 and 2 hours post-dose. For analysis of progression free survival, PK parameter was used as a covariate in Cox proportional hazards model.
“Tumor shrinkage” (TS) means percent change of sum of diameters of target lesions, taking as reference the baseline sum diameters.
Also changes in thyroglobulin levels were associated with tumor shrinkage after completion of cycle 2 (56 days after treatment) (Speaman's rank correlation test, Table 8, middle).
Next, the factors associated with tumor shrinkage were investigated (Pearson's correlation coefficient test, Table 11).

[2] = test system: differentiated thyroid cancer patients; experiment: Progression free survival of E7080-treated DTC patients (Logrank test, Cox proportional hazards model with or without PK covariate); format: in vivo, human; conditions: patients with mutations in NRAS alone or in either NRAS or KRAS vs wild type for NRAS or KRAS
Description: as §1, with “model. […]” for “model.”
The association of gene mutations with progression free survival of treated patients was analyzed first by performing Logrank test and then using Cox proportional hazards model with or without covariates. […]

## COc1cc2nccc(Oc3ccc(NC(=O)NC4CC4)c(Cl)c3)c2cc1C(N)=O [E7080, 4-(3-chloro-4-(cyclopropylaminocarbonyl)aminophenoxy)-7-methoxy-6-quinolinecarboxamide]
[1]; KRAS, NRAS (any of gene) mutation patients
  % of tumor shrinkage (Median): −44.5%
[1]; KRAS, NRAS wild type patients
  % of tumor shrinkage (Median): −31.0%
[1]; NRAS mutation patients
  % of tumor shrinkage (Median): −45.5%
[1]; NRAS wild type patients
  % of tumor shrinkage (Median): −35.5%
[2]
  Progression free survival, Logrank test: better progression free survival; also recorded: better PFS
